Assays:
[1] = system: U87 glioblastoma cells; experiment: Phototoxicity assay in U87 glioblastoma cells, Annexin V-Pacific Blue staining (fluorescence microscopy, flow cytometry); format: cell-based
Experimental: Compound was administered at 100 μM and illuminated under 520 nm light. Annexin V-Pacific Blue was used as a stain for dead cells. Red fluorescence was used to confirm uptake of PS-SCOTfluor-13 into cells.
Phototoxicity assays of PS-SCOTfluor-13 and 2-NBDG in U87 glioblastoma cells were determined. Compounds administered at 100 μM and illuminated under 520 nm light. Annexin V-Pacific Blue was used as a stain for dead cells. Red fluorescence (for PS-SCOTfluor-13) and green fluorescence (for 2-NBDG) was used to confirm uptake of the compounds into cells.

[2] = Singlet oxygen generation (DPBF absorption, 520 nm laser); format: physicochemical; conditions: for Singlet oxygen quantum yield (%): DPBF 40 μM in EtOH, 520 nm laser 0.3 mW
[3] = system: U87-mCrimson glioblastoma cells; experiment: U87-mCrimson glioblastoma transplant in zebrafish embryos, 520 nm irradiation; format: in vivo; conditions: compound injected, then 520 nm light
Experimental: Briefly, U87-mCrimson glioblastoma cells were injected into the yolk sac of zebrafish embryos. Cells were effectively transplanted as shown by fluorescence microscopy images. Zebrafish were then irradiated with 520 nm light alone or injected with PS-SCOTfluor-13 and then irradiated with 520 nm light.

[4] = 100 μM, illuminated under 520 nm light

Structure (SMILES): O=[N+]([O-])c1ccc(N[C@H]2C(O)O[C@H](CO)[C@@H](O)[C@@H]2O)c2nonc12 (stereo partly drawn) [2-NBDG, reference compound]
- Uptake into U87 glioblastoma cells (fluorescence) ([1]; 100 μM): uptaken by U87 glioblastoma cells
- Cell death as detected by Annexin V staining (fluorescence microscopy) [1, 4]: does not kill the cells after illumination
- Singlet oxygen quantum yield (%) [2]: <1%

Structure (SMILES): CCN(CC)c1ccc([N+](=O)[O-])c2n[se]nc12 [PS-SCOTfluor-5, N,N-diethyl-7-nitrobenzo[c][1,2,5]selenadiazol-4-amine]
- Singlet oxygen quantum yield (%) [2]: 3%

Structure (SMILES): CCN(CC)c1cc(I)c([N+](=O)[O-])c2n[se]nc12 [PS-SCOTfluor-6, N,N-diethyl-6-iodo-7-nitrobenzo[c][1,2,5]selenadiazol-4-amine]
- Singlet oxygen quantum yield (%) [2]: 5%

Structure (SMILES): NC(CNc1ccc([N+](=O)[O-])c2n[se]nc12)C(=O)O (stereo not drawn) [PS-SCOTfluor-19, 2-amino-3-((7-nitrobenzo[c][1,2,5]selenadiazol-4-yl)amino)propanoic acid]
- Singlet oxygen quantum yield (%) [2]: 10%

Structure (SMILES): O=[N+]([O-])c1ccc(N[C@@H]2[C@@H](O)[C@H](O)[C@@H](CO)O[C@H]2O)c2nsnc12 [PS-SCOTfluor-13, (2R,3R,4R,5S,6R)-6-(hydroxymethyl)-3-((7-nitrobenzo[c][1,2,5]thiadiazol-4-yl)amino)tetrahydro-2H-pyran-2,4,5-triol]
- Cell death as detected by Annexin V staining (flow cytometry) [1, 4]: kills U87 glioblastoma cells only after irradiation with light but not without light
- Cell death as detected by Annexin V staining (fluorescence microscopy) [1, 4]: kills U87 glioblastoma cells only after irradiation with light
- Effect of excess unlabelled glucose on uptake and cell death ([1]; competition with excess unlabelled glucose, Annexin V staining): reduces the uptake of PS-SCOTfluor-13 and subsequently cell death
- Glioblastoma transplant (fluorescence of mCrimson reporter) [3]: reduction of the glioblastoma transplant
- Activity as photosensitizer (summary of Table 1) [2]: high activity as photosensitizer
- Singlet oxygen quantum yield (%) [2]: 24%
